Reference: the supplement of paper PMC10307832

Experiments:
[1] = compound: CCOC(=O)CCNc1cc(N2CCc3ccccc3CC2)nc(-c2ccccn2)n1 [GSK-J4] + COc1cc2c(Oc3ccc(NC(=O)C4(C(=O)Nc5ccc(F)cc5)CC4)cc3F)ccnc2cc1OCCCN1CCOCC1 [Foretinib] (partner 0.25 µM); test: relative viability (nuclei count vs DMSO), 5 days (fraction); higher = more cells survive
Outline: (§1)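 Lung cancer cell lines were seeded in 1536-well plates and dosed by pin tool the next day, with either a single drug or a fixed anchor-drug dose combined with five library-drug doses (not always all listed) spaced in √10 steps. Five days later, one step fixed the cells and stained their nuclei (final 0.05% Triton X-100, 1% formaldehyde, 1 ug/ml Hoechst), and nuclei were counted on 4× images. Relative viability is the nuclei count in treated wells divided by the count in vehicle wells, and each value is the median of duplicate plates.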

[2] = compound: CN1CCC(CC1)OC2=CC(=C(C=C2)NC3=NC=C4C(=N3)N(C(=O)N4C)C5CCCC5)OC [AZ3146] + Cc1cc(Nc2cc(N3CCN(C)CC3)nc(Sc3ccc(NC(=O)C4CC4)cc3)n2)n[nH]1 [Tozasertib] (partner 0.1 µM); test: as above
Outline: as §1

Cell Line | relative viability ([1]; first compound 0.5 µM) | relative viability ([1]; first compound 1.581 µM) | relative viability ([1]; first compound 15.81 µM) | relative viability ([1]; first compound 50 µM) | relative viability ([2]; first compound 0.08 µM) | relative viability ([2]; first compound 0.253 µM) | relative viability ([2]; first compound 0.8 µM) | relative viability ([2]; first compound 2.53 µM) | relative viability ([2]; first compound 8 µM) | relative viability ([1]; first compound 5 µM)
NCI-H2009 | 1.17 | 1.19 | 1.2 | 0.986 | 0.669 | 0.689 | 0.463 | 0.557 | 0.434 | –
COR-L 105 | 1.13 | 0.877 | 1.02 | 0.969 | 0.409 | 0.335 | 0.304 | 0.293 | 0.309 | 0.834
NCI-H1623 | 0.93 | 0.727 | 0.562 | 0.807 | 0.46 | 0.404 | 0.461 | 0.481 | 0.4 | 0.925
HCC-827 | 1.02 | 1.07 | 0.955 | 0.847 | 0.45 | 0.454 | 0.414 | 0.427 | 0.368 | 1.05
EMC-BAC-2 | 0.93 | 0.937 | 0.982 | 0.647 | 0.222 | 0.269 | 0.307 | 0.277 | 0.233 | 0.685
NCI-H1703 | 0.319 | 0.403 | 0.325 | 0.304 | – | – | – | – | – | 0.337
NCI-H2170 | 0.949 | 0.983 | 1.02 | 0.958 | 0.593 | 0.838 | 0.644 | 0.561 | 0.266 | 0.917
NCI-H1755 | 0.906 | 0.817 | 0.878 | 0.837 | 0.519 | 0.696 | 0.678 | 0.766 | 0.588 | 0.861
ChaGo-K-1 | 0.995 | 0.907 | 0.895 | 0.72 | 0.192 | 0.229 | 0.22 | 0.235 | 0.206 | 0.971
EKVX | 0.757 | 0.221 | 0.315 | 0.908 | 0.314 | 0.399 | 0.364 | 0.378 | 0.232 | 0.754
HCC-78 | 0.571 | 0.508 | 0.589 | 0.631 | 0.315 | 0.449 | 0.347 | 0.404 | 0.44 | 0.675
A-427 | 1.05 | – | 0.532 | 0.218 | 0.2 | 0.191 | 0.157 | 0.19 | 0.205 | 1.11
NCI-H3122 | 0.983 | 1.01 | 1.05 | 0.969 | 0.397 | 0.345 | 0.307 | 0.344 | 0.228 | 0.938
NCI-H1563 | 0.943 | 0.898 | 0.801 | 0.973 | – | – | – | – | – | 0.747
SK-MES-1 | 0.808 | 0.757 | 0.624 | 0.866 | 0.891 | 0.97 | 0.77 | 0.276 | 0.211 | 0.843
SW 1573 | 0.846 | 0.69 | 0.776 | 0.764 | 0.208 | 0.162 | 0.179 | 0.164 | 0.195 | 0.751
NCI-H2347 | 1.16 | 0.716 | 0.843 | 0.826 | 0.399 | 0.529 | 0.461 | 0.744 | 0.464 | 1.06

Cell Line | relative viability ([1]; first compound 0.5 µM) | relative viability ([1]; first compound 1.581 µM) | relative viability ([1]; first compound 15.81 µM) | relative viability ([1]; first compound 50 µM) | relative viability ([2]; first compound 0.08 µM) | relative viability ([2]; first compound 0.253 µM) | relative viability ([2]; first compound 0.8 µM) | relative viability ([2]; first compound 2.53 µM) | relative viability ([2]; first compound 8 µM) | relative viability ([1]; first compound 5 µM)
LC-2-ad | 0.909 | 0.763 | 0.781 | 0.775 | 0.323 | 0.44 | 0.424 | 0.365 | 0.269 | 0.868
HCC-15 | 0.949 | – | 0.854 | 0.69 | 0.374 | 0.426 | 0.263 | 0.221 | 0.102 | 0.898
PC-3 [JPC-3] | 0.96 | 1.01 | 0.959 | 0.762 | 0.829 | 0.905 | 0.855 | 0.877 | 0.715 | 1.01
NCI-H1915 | 1.04 | 1.03 | 1.06 | 0.523 | 0.409 | 0.483 | 0.367 | 0.381 | 0.351 | –
HOP-62 | 1 | 0.882 | 1.03 | 0.766 | 0.325 | 0.447 | 0.345 | 0.348 | 0.291 | 1.02
LCLC-103H | 0.8 | 0.617 | 0.593 | 0.52 | 0.418 | 0.523 | 0.498 | 0.45 | 0.409 | 0.789
NCI-H460 | 0.977 | 0.81 | 1 | 0.871 | 0.277 | 0.422 | 0.118 | 0.0719 | 0.0801 | 0.732
NCI-H441 | 0.962 | 0.875 | 0.906 | 0.759 | 0.676 | 0.701 | 0.595 | 0.588 | 0.266 | 1.1
SK-LU-1 | 0.727 | 0.722 | 0.598 | 0.603 | 0.354 | 0.293 | 0.279 | 0.3 | 0.216 | 0.62
Calu-6 | 0.83 | 0.867 | 0.839 | 0.822 | – | – | – | – | – | 0.867
NCI-H2228 | 0.764 | 1.03 | 0.817 | 1.06 | 0.224 | 0.385 | 0.292 | 0.198 | 0.18 | 0.854
LCLC-97TM1 | 0.972 | 0.953 | 0.856 | 0.561 | 0.206 | 0.216 | 0.208 | 0.228 | 0.146 | 0.909
NCI-H1993 | 0.789 | 0.74 | 0.556 | 0.549 | 0.544 | 0.548 | 0.6 | 0.544 | 0.51 | 0.796
NCI-H1793 | 0.801 | 0.575 | 0.423 | 0.514 | 0.315 | 0.34 | 0.296 | 0.192 | 0.254 | 0.737
NCI-H2087 | 0.973 | – | 1.1 | 0.818 | 0.215 | 0.31 | 0.236 | 0.17 | 0.175 | 1.13
COR-L23 | 0.927 | 0.901 | 0.897 | 0.822 | 0.193 | 0.222 | 0.161 | 0.144 | 0.173 | –
NCI-H1355 | 0.878 | 0.837 | 0.839 | 0.859 | 0.371 | 0.573 | 0.485 | 0.404 | 0.359 | 1.08
